The target of test [1] is T1, D(2) dopamine receptor (Rattus norvegicus, UniProt P61169). Description: Binding affinity against [3H]raclopride-labeled dopamine receptor D2 in rat striatum. It counts as tissue-based.
The species named for test [2] is Rattus norvegicus. Nature of the test: Effect on the synthesis rates of serotonin (5-HTP accumulation) in the rat ventral limbic brain region at 10.2uMkg. It counts as functional, Limbic system.
The subject of test [3] is Mus musculus. Description: Time of effect in the face-to-face behavioral assay in the mouse when a dose of 0.4 micro mol/kg is administered perorally. It counts as functional.
The subject of test [4] is Rattus norvegicus. Nature of the test: Inhibition of firing rates of dopaminergic neurons in the substantia nigra pars compacta by intravenous injection in rats. It counts as functional. Particulars: Rattus norvegicus, Substantia nigra pars compacta, iv; read-out: ED50.
Test [5] has as its system Mus musculus. Description: Time of effect in the isolation-induced aggression behavioral assay in the mouse when a dose of 3.6 micro mol/kg is administered perorally. It counts as functional.
The subject of test [6] is Felis catus. Nature of the test: Maximum decrease of sympathetic nerve activity (SND) in anesthetized cat. It counts as functional. The arrangement: scale not given: the % may be the effect or the level left.
Test [7] concerns Mus musculus. Nature of the test: Antagonism of apomorphine for 0-10 minutes in reserpinized mice when a dose of 3.6 micro mol/kg is administered intraperitoneally. The class given is functional.
In test [8] the target is T2, D(2) dopamine receptor (Homo sapiens, UniProt P14416). Description: Binding affinity against [3H]U-86,170-labeled dopamine receptor D2 in cloned CHO cells. It counts as cell-based.
Test [9] concerns Mus musculus. Description: Time of effect in the face-to-face behavioral assay in the mouse when a dose of 3.6 micro mol/kg is administered perorally. The class given is functional.
In test [10] the test system is Felis catus. Description: Maximum decrease of arterial blood pressure at sympathetic nerve activity (SND) in anesthetized cat has been observed following 1 mg/kg dose. It counts as functional. The arrangement: scale not given: the % may be the effect or the level left.
Test [11] relates to Mus musculus. Nature of the test: Time of effect in the isolation-induced aggression behavioral assay in the mouse when a dose of 36 micro mol/kg is administered perorally. The class given is functional.
Test [12] deals with Mus musculus. Nature of the test: Antagonism of apomorphine in reserpinized mice when a dose of 36 micro mol/kg is administered intraperitoneally. It counts as functional.
Test [13] has as its system Mus musculus. Description: Ability to stimulate dopaminergic systems by effect on locomotor activity in reserpinized mice when a dose of 3.6 micro mol/kg is administered intraperitoneally. It counts as functional.
In test [14] the test system is Mus musculus. Description: Time of effect in the face-to-face behavioral assay in the mouse when a dose of 36 micro mol/kg is administered perorally. It counts as functional.
In test [15] the test system is Mus musculus. Description: Increase in locomotor activity in reserpinized mice following 0.4 umol/kg i.p. The class given is functional.
The test system of test [16] is Mus musculus. Nature of the test: Ability to stimulate dopaminergic systems by effect on locomotor activity in reserpinized mice when a dose of 36 micro mol/kg is administered intraperitoneally. It counts as functional.
Test [17] has as its system Mus musculus. Nature of the test: Antagonism of apomorphine for 0-10 minutes in reserpinized mice when a dose of 36 micro mol/kg is administered intraperitoneally. It counts as functional.
In test [18] the test system is Mus musculus. Description: Time of effect in the isolation-induced aggression behavioral assay in the mouse when a dose of 11 micro mol/kg is administered perorally. It counts as functional.
The test system of test [19] is Mus musculus. Description: Antagonism of apomorphine effects in reserpinized mice following 0.4 umol/kg i.p. The class given is functional.
Test [20] has as its system Rattus norvegicus. Nature of the test: Inhibition of firing rates of serotonergic neurons in the dorsal raphe nucleus by intravenous injection in rats. The class given is functional.
Test [21] has as its system Mus musculus. Description: Antagonism of apomorphine in reserpinized mice when a dose of 3.6 micro mol/kg is administered intraperitoneally. It counts as functional.
Test [22] relates to Mus musculus. Nature of the test: Antagonism of apomorphine effects for 10-20 minutes in reserpinized mice following 0.4 umol/kg i.p. The class given is functional.
The test system of test [23] is Mus musculus. Description: Time of effect in the face-to-face behavioral assay in the mouse when a dose of 0.0 micro mol/kg is administered perorally. The class given is functional.
Test [24] relates to Mus musculus. Nature of the test: Time of effect in the isolation-induced aggression behavioral assay in the mouse when a dose of 0.0 micro mol/kg is administered perorally. The class given is functional.
Test [25] concerns Mus musculus. Description: Antagonism of apomorphine for 10-20 minutes in reserpinized mice when a dose of 3.6 micro mol/kg is administered intraperitoneally. The class given is functional.
For test [26], the target named is T2, D(2) dopamine receptor. Nature of the test: Intrinsic activity from GTP shift using membranes from CHO cells transfected with mammalian dopamine receptor D2. The class given is cell membranes.
Test [27] has as its system Mus musculus. Nature of the test: Antagonism of apomorphine for 10-20 minutes in reserpinized mice when a dose of 36 micro mol/kg is administered intraperitoneally. It counts as functional.
The subject of test [28] is Mus musculus. Nature of the test: Antagonism of apomorphine effects for 0-10 minutes in reserpinized mice following 0.4 umol/kg i.p. The arrangement: unit not given beside the values. The class given is functional.
In test [29] the test system is Rattus norvegicus. Nature of the test: Effect on the synthesis rates of serotonin in the rat ventral limbic brain region at 2.7 micro mol/kg. It counts as functional, Limbic system.
Test [30] deals with Mus musculus. Nature of the test: Antagonism of apomorphine in reserpinized mice when a dose of 3.7 micro mol/kg is administered intraperitoneally. It counts as functional.
Test [31] deals with Mus musculus. Nature of the test: Antagonism of apomorphine in reserpinized mice when a dose of 37 micro mol/kg is administered intraperitoneally. It counts as functional.
The test system of test [32] is Mus musculus. Description: Ability to stimulate dopaminergic systems by effect on locomotor activity in reserpinized mice when a dose of 3.7 micro mol/kg is administered intraperitoneally. The class given is functional.
For test [33], the system named is Mus musculus. Description: Antagonism of apomorphine for 10-20 minutes in reserpinized mice when a dose of 3.7 micro mol/kg is administered intraperitoneally. The class given is functional.
The subject of test [34] is Mus musculus. Nature of the test: Antagonism of apomorphine for 0-10 minutes in reserpinized mice when a dose of 37 micro mol/kg is administered intraperitoneally. It counts as functional.
The subject of test [35] is Mus musculus. Nature of the test: Ability to stimulate dopaminergic systems by effect on locomotor activity in reserpinized mice when a dose of 37 micro mol/kg is administered intraperitoneally. The class given is functional.
Test [36] relates to Mus musculus. Description: Antagonism of apomorphine for 10-20 minutes in reserpinized mice when a dose of 37 micro mol/kg is administered intraperitoneally. It counts as functional.
Test [37] concerns Mus musculus. Nature of the test: Antagonism of apomorphine for 0-10 minutes in reserpinized mice when a dose of 3.7 micro mol/kg is administered intraperitoneally. The class given is functional.
The test system of test [38] is Mus musculus. Nature of the test: Antagonism of apomorphine for 0-10 minutes in reserpinized mice when a dose of 4 micro mol/kg is administered intraperitoneally. The class given is functional.
Test [39] concerns Mus musculus. Description: Ability to stimulate dopaminergic systems by effect on locomotor activity in reserpinized mice when a dose of 4 micro mol/kg is administered intraperitoneally. It counts as functional.
Test [40] has as its system Mus musculus. Nature of the test: Antagonism of apomorphine for 10-20 minutes in reserpinized mice when a dose of 4 micro mol/kg is administered intraperitoneally. The class given is functional.
Test [41] deals with Mus musculus. Nature of the test: Antagonism of apomorphine in reserpinized mice when a dose of 4 micro mol/kg is administered intraperitoneally. The class given is functional.
Test [42] deals with T1, D(2) dopamine receptor. Description: Inhibitory concentration against [3H]raclopride-labeled dopamine receptor D2 in rat striatum. It counts as tissue-based.

This note sets out measurements from ChEMBL document CHEMBL1127015, “Centrally acting serotonergic and dopaminergic agents. 1. Synthesis and structure-activity relationships of 2,3,3a,4,5,9b-hexahydro-1H-benz[e]indole derivatives” (J Med Chem, 1993).

Several values for one entry are separate records, joined by “and”; a condition that tells them apart may be missing. Equal values may be shown once. Bounds are passed on as bounds.

T2 sequence (P14416 whole entry): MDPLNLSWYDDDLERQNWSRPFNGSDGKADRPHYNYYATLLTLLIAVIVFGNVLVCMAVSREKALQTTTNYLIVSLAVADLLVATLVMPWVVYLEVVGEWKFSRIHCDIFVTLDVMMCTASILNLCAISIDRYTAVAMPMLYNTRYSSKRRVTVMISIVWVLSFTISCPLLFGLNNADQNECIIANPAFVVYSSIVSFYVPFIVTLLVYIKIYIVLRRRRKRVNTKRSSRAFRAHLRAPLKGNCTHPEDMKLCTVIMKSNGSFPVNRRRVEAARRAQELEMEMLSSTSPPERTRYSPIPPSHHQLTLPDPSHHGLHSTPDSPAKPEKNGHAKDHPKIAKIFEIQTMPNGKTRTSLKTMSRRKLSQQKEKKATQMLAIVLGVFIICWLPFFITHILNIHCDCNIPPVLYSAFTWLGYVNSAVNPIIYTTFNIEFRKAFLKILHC
T1 sequence (P61169 whole entry): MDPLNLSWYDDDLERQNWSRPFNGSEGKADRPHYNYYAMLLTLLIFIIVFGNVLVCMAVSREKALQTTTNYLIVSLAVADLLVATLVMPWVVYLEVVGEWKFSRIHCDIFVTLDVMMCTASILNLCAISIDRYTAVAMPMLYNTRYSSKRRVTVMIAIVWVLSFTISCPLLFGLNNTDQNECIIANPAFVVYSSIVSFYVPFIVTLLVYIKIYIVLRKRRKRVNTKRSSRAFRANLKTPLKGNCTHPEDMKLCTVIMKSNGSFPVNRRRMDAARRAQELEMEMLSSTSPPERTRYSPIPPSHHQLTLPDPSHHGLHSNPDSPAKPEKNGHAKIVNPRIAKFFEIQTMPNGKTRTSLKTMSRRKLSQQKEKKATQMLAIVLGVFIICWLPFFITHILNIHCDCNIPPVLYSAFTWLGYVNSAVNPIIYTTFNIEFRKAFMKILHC

As usually defined, the Ki is a dissociation constant, usually derived from enzyme kinetics or from competition with a known ligand. As to `COc1cccc2c1CC[C@@H]1[C@H]2CCN1CC1CC1` (racemic), in test [1], the Ki is above 10000 nM. Moreover, the Control in [2] is -15% and -7%.

A word on the ED50: it is the midpoint of the dose-response relation. On to `C=CCN1CCC2c3c(cccc3OC)CC[C@H]21` (single isomer, unassigned; (-)), for which the Time came out at 0.9 s in test [3]; 85 s in [5]; 1.3 s in [9]; 236 s in test [11]; 1.4 s in test [14]; 40 s in test [18]. Moreover, the Time is 1.2 s in test [23]; 18 s and 27 s in [24]. Further, the figures for the ED50 in test [4] and in test [20] were 0.04 µmol/kg and 0.007 µmol/kg, respectively. Further, the values for the Control in [6] and in [10] were 385% and 55%, respectively. The Locomotor activity is 52 in test [7]; 11 in test [12]; 79 in test [13]; 7 in test [15]; 52 in [16]; 24 in test [17]. Further, the Locomotor activity in test [19] is recorded as 50; in test [21] it was 14; in [22] it was 45; in test [25], 49; in test [27], 18; in test [28], 29. This compound yielded an inhibitory constant (Ki) in test [8] of 6.7 nM. In test [26], the Intrinsic activity is 24%.

Take `O=C(CCCN1CCC(O)(c2ccc(Cl)cc2)CC1)c1ccc(F)cc1` [HALOPERIDOL]: in test [29], the Control is on record as -7%.

Regarding `CCCN1CC[C@@H]2c3cccc(O)c3CC[C@H]21` (racemic), the median effective dose (ED50) in test [4] stood at 0.43 µmol/kg. Also, the Locomotor activity was 46 in [30]; 4 in test [31]; 2 in test [32]; 47 in test [33]; 6 in test [34]; 63 in test [15]. The Locomotor activity in test [35] is given as 162; in test [36] it was 5; in test [37], 34; in test [19], 72; in [22], 86; in test [28], 54. The inhibitory constant (Ki) in test [8] came to 93 nM; in test [1], 33 nM. In addition, the Intrinsic activity in [26] came out at 28%.

In general, IC50 refers to the concentration that inhibits the measured activity by half. `CCCN1CC[C@@H]2c3ccccc3CC[C@H]21` (racemic): the Locomotor activity in [38] came to 22; in [39], 15; in test [15], 22; in [19], 55; in test [22], 61; in test [40], 46. Besides, the Locomotor activity in [41] is listed as 48; in [28] it was 41. In addition, the 50% inhibitory concentration (IC50) in [42] was above 1000 nM.
